Source: patent US20210102239A1, “METHOD FOR DETERMINING BACTERIAL NUMBER IN SPECIMEN” (MITSUI CHEMICALS, INC., priority 2017, published 2021)

Key:
[1] = tested on: Escherichia coli; assay: drug sensitivity test of the pathogenic bacterium from blood culture; format: cell-based; conditions: isolate from blood specimen sampled before antibiotic treatment
Description: (§1) According to Step 1 to Step 4 of Example 1, a pathogenic bacterium rapid quantification test using sepsis patient's specimens (EDTA blood collection tube, 2 mL) was carried out. […] Blood was sampled before treatment with an antibiotic (pretreatment), and 24 hours (after 24 hrs.) and 72 hours (after 72 hrs.) after administration of the antibiotic. At the three points, a pathogenic bacterium rapid quantification test was carried out together with measurement of body temperature, white blood cell count, CRP, presepsin and IL-6. Furthermore, a blood specimen sampled before the antibiotic treatment was subjected to a blood culture method to identify a pathogenic bacterium and subjected to a drug sensitivity test. General information about individual cases is as follows.
According to Step 1 to Step 5 of Example 1, a pathogenic bacterium rapid identification/quantification test using sepsis patient's specimens (EDTA blood collection tube, 2 mL) was carried out. […] Blood was sampled before treatment with an antibiotic (pretreatment), and 24 hours (after 24 hrs.) and 72 hours (after 72 hrs.) after administration of the antibiotic. At the three points, a pathogenic bacterium rapid identification/quantification test was carried out together with measurement of body temperature, white blood cell count, CRP, presepsin and IL-6. […]

[2] = tested on: Escherichia coli; assay: Case 1: pathogen count (nested PCR) and biomarkers in blood before/after antibiotic treatment; format: in vivo, human (sepsis patient); conditions: for BT (body temperature): pretreatment 37.0; for IL-6: pretreatment 122; for CRP: pretreatment 185.9; for WBC: pretreatment 285.6; for Presepsin: pretreatment 1298; for Pathogen (Ave): pretreatment 1314
Description: (§2) First, bacterial cells were collected from a blood specimen by centrifuging the whole blood at a low rate of 100×g for 5 minutes to separate blood cells, centrifuging the resultant supernatant (containing buffy coat) at a high rate of 20,000×g for 10 minutes to obtain a pellet.
(§3) Using DNA of a pathogenic bacterium taken from the blood specimen according to the method of Step 1 as a template, nested PCR (1st PCR: 30 cycle→100 double dilution→2nd PCR: 30 to 35 cycles) is carried out. The bacterial cells in patient specimens vary in a wide range from very small to large number. Since it is difficult to accurately determine the bacterial number in a single cycle of PCR, nested PCR methods are used in combination.
(§4) Subsequently, using pathogenic bacterium DNA of Step 1 as a template, nested PCR was carried out together with a quantification control in the conditions described in Step 2. In the 1st PCR and 2nd PCR for quantification, the following bacterial universal primer (primer for detecting almost all bacteria) was used. The target region of the bacterial universal primer is a bacterial conserved region (base sequence region common in almost all bacteria) of a 16S ribosomal RNA gene. A predetermined bacterium is quantified by a bacterial species-specific primer; however, a pathogenic bacterium is not identified in the early stage of sepsis. Because of this, a bacterial species-specific primer cannot be used. Accordingly, unless a bacterial universal primer is used, an unidentified bacterium cannot be detected.
(§5) As mentioned above, E. coli DNA samples of three different concentrations and of a known bacterial number were used as quantification controls. Based on the data of three quantification controls different in concentration, a calibration curve was prepared. Based on bacterial DNA extracted from a patient specimen, the number of pathogenic bacterial cells was determined. Since the number of bacterial cells was obtained as an E. coli cell-number equivalent used as a quantification control, the number of bacterial cells in a specimen can be more easily, rapidly and accurately determined.
as §1
Case 1: • person, sepsis associated with urinary tract infection • blood culture/urine culture: Escherichia coli • antibiotic substance: meropenem (sensitive)

[3] = tested on: Escherichia coli; assay: Case 4: pathogen identification/quantification and biomarkers in blood before/after antibiotic treatment; format: in vivo, human (sepsis patient); conditions: for BT (body temperature): pretreatment 37.0; for IL-6: pretreatment 122; for CRP: pretreatment 185.9; for WBC: pretreatment 285.6; for Presepsin: pretreatment 1298; for Pathogen (Ave): pretreatment 1314
Description: as §2, §3, §4, §5
For the reason, it is necessary to make a correction based on the operon copy number per bacterium species in order to more accurately determine bacterial number. Since identification and qualification of a pathogenic bacterium are carried out concurrently in Step 3 and Step 4, the number of pathogenic bacterial cells can be corrected based on 16S ribosomal RNA operon copy number of the bacterium identified to computationally obtain the correct number of bacterial cells.
as §1, with “Step 5” for “Step 4”, “rapid identification/quantification” for “rapid quantification”
Case 4: • person, sepsis associated with urinary tract infection • Tm mapping method: Escherichia coli (Dist. value=0.29) • blood culture/urine culture: Escherichia coli • antibiotics substance: meropenem (sensitive)

With C[C@@H](O)[C@H]1C(=O)N2C(C(=O)O)=C(S[C@@H]3CN[C@H](C(=O)N(C)C)C3)[C@H](C)[C@H]12 [meropenem] the drug sensitivity [1] was “sensitive”, the “BT (body temperature)” value ([2]; Case 1, 24 h after antibiotic) was 37.9 °C and the IL-6 ([2]; Case 1, 24 h after antibiotic) was 85.8 pg/mL. For the same compound, the CRP ([2]; Case 1, 24 h after antibiotic) was 223.1 mg/L, the WBC ([2]; Case 1, 24 h after antibiotic) was 301.4 × 100/μL and the Presepsin ([2]; Case 1, 24 h after antibiotic) was 1729 ng/mL. For the same compound, the “Pathogen (Ave)” value ([2]; Case 1, 24 h after antibiotic) was 248 cells/ml, the “BT (body temperature)” value ([2]; Case 1, 72 h after antibiotic) was 37.2 °C and the IL-6 ([2]; Case 1, 72 h after antibiotic) was 20.7 pg/mL. For the same compound, the CRP ([2]; Case 1, 72 h after antibiotic) was 86.4 mg/L, the WBC ([2]; Case 1, 72 h after antibiotic) was 98.7 × 100/μL and the Presepsin ([2]; Case 1, 72 h after antibiotic) was 1138 ng/mL. For the same compound, the “Pathogen (Ave)” value ([2]; Case 1, 72 h after antibiotic) was 0 cells/ml, the “BT (body temperature)” value ([3]; Case 4, 24 h after antibiotic) was 37.9 °C and the IL-6 ([3]; Case 4, 24 h after antibiotic) was 85.8 pg/mL. The CRP ([3]; Case 4, 24 h after antibiotic) was 223.1 mg/L, the WBC ([3]; Case 4, 24 h after antibiotic) was 301.4 × 100/μL and the Presepsin ([3]; Case 4, 24 h after antibiotic) was 1729 ng/mL. The “Pathogen (Ave)” value ([3]; Case 4, 24 h after antibiotic) was 248 cells/ml, the “BT (body temperature)” value ([3]; Case 4, 72 h after antibiotic) was 37.2 °C and the IL-6 ([3]; Case 4, 72 h after antibiotic) was 20.7 pg/mL. The CRP ([3]; Case 4, 72 h after antibiotic) was 86.4 mg/L, the WBC ([3]; Case 4, 72 h after antibiotic) was 98.7 × 100/μL and the Presepsin ([3]; Case 4, 72 h after antibiotic) was 1138 ng/mL. For the same compound, the “Pathogen (Ave)” value ([3]; Case 4, 72 h after antibiotic) was 0 cells/ml.
